Laboratory results taken from ChEMBL document CHEMBL4842368, “Berotralstat (BCX7353): Structure-Guided Design of a Potent, Selective, and Oral Plasma Kallikrein Inhibitor to Prevent Attacks of Hereditary Angioedema (HAE)” (J Med Chem, 2021).
In brackets after ≈: the same amount, converted by molar mass. Blank lines part the entries; values can stand above or below the compound they belong to.

What was measured:
[1] = target: T1, Plasma kallikrein (Homo sapiens, UniProt P03952); assay: Inhibition of purified human plasma kallikrein using H-D-Pro-Phe-Arg-pNA.2HCl as substrate measured after 3 mins by microplate reader analysis
T1 sequence (P03952 20-390 limits assumed): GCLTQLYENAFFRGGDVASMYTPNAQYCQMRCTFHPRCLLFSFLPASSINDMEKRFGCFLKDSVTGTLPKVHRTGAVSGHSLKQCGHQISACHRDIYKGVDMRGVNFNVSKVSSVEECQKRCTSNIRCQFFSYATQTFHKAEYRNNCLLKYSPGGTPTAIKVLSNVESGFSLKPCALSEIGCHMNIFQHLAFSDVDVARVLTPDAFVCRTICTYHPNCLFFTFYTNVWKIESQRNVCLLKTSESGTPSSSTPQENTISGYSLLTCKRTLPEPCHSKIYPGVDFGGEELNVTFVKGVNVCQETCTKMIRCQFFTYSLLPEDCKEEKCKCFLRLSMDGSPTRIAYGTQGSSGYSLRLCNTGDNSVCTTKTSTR
T1 sequence (P03952 391-638 limits assumed): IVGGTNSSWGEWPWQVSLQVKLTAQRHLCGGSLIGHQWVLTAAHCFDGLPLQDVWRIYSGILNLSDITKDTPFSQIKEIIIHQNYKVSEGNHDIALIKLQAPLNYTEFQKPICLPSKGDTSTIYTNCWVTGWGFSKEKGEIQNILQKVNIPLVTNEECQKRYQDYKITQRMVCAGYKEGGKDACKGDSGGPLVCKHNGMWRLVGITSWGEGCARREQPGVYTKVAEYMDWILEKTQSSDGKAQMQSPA

[2] = target: T1, Plasma kallikrein; assay: Inhibition of purified human plasma kallikrein using H-D-Pro-Phe-Arg-pNA.2HCl as substrate at 5 uM measured after 3 mins by microplate reader analysis relative to control
[3] = Cmax in rat at 10 mg/kg, po; type: ADME, organism-based; parameters: route oral, dose 10 mg/kg; conditions: in vivo
[4] = AUC in rat at 10 mg/kg, po after 24 hrs; type: ADME, organism-based; parameters: route oral, time 24 hrs, dose 10 mg/kg; conditions: in vivo
[5] = Plasma concentration in rat at 10 mg/kg, po after 24 hrs; type: ADME, organism-based
[6] = target: Coagulation factor X (Homo sapiens, UniProt P00742); assay: Inhibition of human factor 10a using N-a-Benzyloxycarbonyl-D-arginyl-L-glycyl-L-arginine-pnitroaniline-dihydrochloride as substrate measured after 5 mins by plate reader analysis
Chain of Coagulation factor X (P00742 41-179 limits assumed): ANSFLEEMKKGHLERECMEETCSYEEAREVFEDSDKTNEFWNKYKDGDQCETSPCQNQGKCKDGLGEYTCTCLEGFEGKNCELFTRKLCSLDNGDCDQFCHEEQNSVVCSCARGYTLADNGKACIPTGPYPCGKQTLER
Chain of Coagulation factor X (P00742 235-488 limits assumed): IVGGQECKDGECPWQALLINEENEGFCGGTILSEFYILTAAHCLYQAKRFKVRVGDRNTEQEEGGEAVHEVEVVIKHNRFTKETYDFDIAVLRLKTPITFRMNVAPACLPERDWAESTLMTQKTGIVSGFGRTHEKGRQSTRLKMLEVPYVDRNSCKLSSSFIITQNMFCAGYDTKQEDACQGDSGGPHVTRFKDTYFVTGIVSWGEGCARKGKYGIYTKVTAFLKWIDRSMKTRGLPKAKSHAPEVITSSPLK

[7] = target: T2, Complement C1s subcomponent (Homo sapiens, UniProt P09871); assay: Inhibition of human C1s using […] as substrate measured immediately by plate reader analysis
T2 sequence (P09871 whole entry): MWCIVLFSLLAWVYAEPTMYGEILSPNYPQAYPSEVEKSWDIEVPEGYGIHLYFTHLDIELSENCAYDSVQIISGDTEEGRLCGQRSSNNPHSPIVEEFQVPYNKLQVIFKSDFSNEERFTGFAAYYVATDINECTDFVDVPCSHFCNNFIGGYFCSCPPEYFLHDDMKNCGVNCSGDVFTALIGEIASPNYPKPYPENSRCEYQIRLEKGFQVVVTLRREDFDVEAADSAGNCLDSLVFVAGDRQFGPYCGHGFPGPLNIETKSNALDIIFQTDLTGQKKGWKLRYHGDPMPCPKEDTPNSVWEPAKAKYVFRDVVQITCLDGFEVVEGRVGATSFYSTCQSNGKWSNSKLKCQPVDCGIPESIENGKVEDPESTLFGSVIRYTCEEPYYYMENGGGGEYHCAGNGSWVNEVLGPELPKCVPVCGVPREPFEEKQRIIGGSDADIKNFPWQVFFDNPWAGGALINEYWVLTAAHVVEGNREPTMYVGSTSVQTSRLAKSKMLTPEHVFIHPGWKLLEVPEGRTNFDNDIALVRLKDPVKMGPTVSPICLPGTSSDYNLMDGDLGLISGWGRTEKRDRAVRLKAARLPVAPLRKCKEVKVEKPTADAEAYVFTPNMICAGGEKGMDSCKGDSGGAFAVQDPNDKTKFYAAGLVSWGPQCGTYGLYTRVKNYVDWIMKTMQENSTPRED

[8] = target: Plasminogen (Homo sapiens, UniProt P00747); assay: Inhibition of human plasmin using Z-Lys-SBzl as substrate measured immediately by plate reader analysis
Chain of Plasminogen (P00747 97-580 limits assumed): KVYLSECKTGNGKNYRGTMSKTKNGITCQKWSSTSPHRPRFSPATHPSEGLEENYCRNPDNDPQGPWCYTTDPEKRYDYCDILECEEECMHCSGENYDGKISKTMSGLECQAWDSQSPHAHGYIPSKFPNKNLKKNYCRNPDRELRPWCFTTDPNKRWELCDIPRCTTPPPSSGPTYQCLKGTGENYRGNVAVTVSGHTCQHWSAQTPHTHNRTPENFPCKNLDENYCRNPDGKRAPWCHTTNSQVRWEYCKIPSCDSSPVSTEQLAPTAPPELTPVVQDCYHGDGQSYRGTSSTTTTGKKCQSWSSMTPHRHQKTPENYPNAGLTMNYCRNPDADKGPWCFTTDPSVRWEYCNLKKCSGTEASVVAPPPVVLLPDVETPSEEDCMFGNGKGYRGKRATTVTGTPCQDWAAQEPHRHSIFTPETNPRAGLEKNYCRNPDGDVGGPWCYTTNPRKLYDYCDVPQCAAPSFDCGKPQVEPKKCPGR
Chain of Plasminogen (P00747 581-810 limits assumed): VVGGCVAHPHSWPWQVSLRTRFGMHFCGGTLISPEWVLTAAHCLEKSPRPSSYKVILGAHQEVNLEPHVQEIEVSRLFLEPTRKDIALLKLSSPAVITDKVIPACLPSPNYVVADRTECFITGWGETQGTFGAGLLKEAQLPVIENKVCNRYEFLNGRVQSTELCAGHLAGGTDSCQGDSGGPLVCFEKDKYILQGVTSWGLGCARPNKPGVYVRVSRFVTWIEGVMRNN

[9] = AUC(0 to 24 hrs) in rat at 3 mg/kg, iv; type: ADME, organism-based; parameters: time < 24 hr, route intravenous, dose 3 mg/kg; conditions: in vivo
[10] = Solubility of compound at pH 4; type: physicochemical; conditions: buffer
[11] = Cmax in rat at 30 mg/kg, po; type: ADME, organism-based; parameters: route oral, dose 30 mg/kg; conditions: in vivo
[12] = target: T3, Coagulation factor XII (Homo sapiens, UniProt P00748); assay: Inhibition of human factor 12a using D-prolyl-L-phenylalanyl-L-arginine-p-nitroaniline as substrate measured after 5 mins by plate reader analysis
T3 sequence (P00748 whole entry): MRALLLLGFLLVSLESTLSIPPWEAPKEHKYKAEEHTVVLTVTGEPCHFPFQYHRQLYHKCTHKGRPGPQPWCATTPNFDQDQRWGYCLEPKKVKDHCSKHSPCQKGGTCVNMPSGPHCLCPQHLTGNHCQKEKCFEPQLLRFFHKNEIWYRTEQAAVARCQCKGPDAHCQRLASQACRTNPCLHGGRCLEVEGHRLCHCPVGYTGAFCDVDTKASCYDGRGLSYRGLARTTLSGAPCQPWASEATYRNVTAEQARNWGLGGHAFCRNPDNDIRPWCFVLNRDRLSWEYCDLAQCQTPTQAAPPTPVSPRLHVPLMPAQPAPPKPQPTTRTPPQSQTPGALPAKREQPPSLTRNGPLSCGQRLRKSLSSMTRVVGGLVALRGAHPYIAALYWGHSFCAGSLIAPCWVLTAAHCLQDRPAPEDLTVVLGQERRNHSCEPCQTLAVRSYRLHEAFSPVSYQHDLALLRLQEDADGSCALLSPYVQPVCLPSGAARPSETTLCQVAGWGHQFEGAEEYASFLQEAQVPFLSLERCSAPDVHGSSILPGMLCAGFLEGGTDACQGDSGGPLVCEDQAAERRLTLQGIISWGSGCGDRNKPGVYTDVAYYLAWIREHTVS

[13] = Clearance in rat at 3 mg/kg, iv; type: ADME, organism-based; conditions: in vivo
[14] = Oral bioavailability in rat at 30 mg/kg; type: ADME, organism-based; conditions: in vivo
[15] = Half life in monkey at 25 mg/kg, po; type: ADME, organism-based, Macaca mulatta; conditions: rhesus monkey, in vivo
[16] = Clearance in monkey at 25 mg/kg, po; type: ADME, organism-based, Macaca mulatta; conditions: rhesus monkey, in vivo
[17] = AUC(0 to 96 hrs) in rat at 30 mg/kg, po; type: ADME, organism-based; parameters: time < 96 hr, route oral, dose 30 mg/kg; conditions: in vivo
[18] = Tmax in monkey at 25 mg/kg, po; type: ADME, organism-based, Macaca mulatta; conditions: rhesus monkey, in vivo
[19] = Half life in rat at 3 mg/kg, iv; type: ADME, organism-based; conditions: in vivo
[20] = Cmax in monkey at 25 mg/kg, po; type: ADME, organism-based, Macaca mulatta; parameters: route oral, dose 25 mg/kg; conditions: rhesus monkey, in vivo
[21] = Cmax in monkey at 2.5 mg/kg, iv; type: ADME, organism-based, Macaca mulatta; parameters: route intravenous, dose 2.5 mg/kg; conditions: rhesus monkey, in vivo
[22] = Clearance in monkey at 2.5 mg/kg, iv; type: ADME, organism-based, Macaca mulatta; conditions: rhesus monkey, in vivo
[23] = Oral bioavailability in monkey at 25 mg/kg; type: ADME, organism-based, Macaca mulatta; conditions: rhesus monkey, in vivo
[24] = AUC(0 to 24 hrs) in monkey at 2.5 mg/kg, iv; type: ADME, organism-based, Macaca mulatta; parameters: time < 24 hr, route intravenous, dose 2.5 mg/kg; conditions: rhesus monkey, in vivo
[25] = target: Prothrombin (Homo sapiens, UniProt P00734); assay: Inhibition of human thrombin using Nalpha-Benzoyl-Phe-Val-Arg p-nitroaniline as substrate measured after 5 mins by plate reader analysis
[26] = Solubility of compound at pH 7; type: physicochemical; conditions: buffer
[27] = Clearance in rat at 30 mg/kg, po; type: ADME, organism-based; conditions: in vivo
[28] = AUC(0 to 96 hrs) in rat at 3 mg/kg, iv; type: ADME, organism-based; parameters: time < 96 hr, route intravenous, dose 3 mg/kg; conditions: in vivo
[29] = AUC(0 to 24 hrs) in monkey at 25 mg/kg, po; type: ADME, organism-based, Macaca mulatta; parameters: time < 24 hr, route oral, dose 25 mg/kg; conditions: rhesus monkey, in vivo
[30] = Half life in monkey at 2.5 mg/kg, iv; type: ADME, organism-based, Macaca mulatta; conditions: rhesus monkey, in vivo
[31] = Cmax in rat at 3 mg/kg, iv; type: ADME, organism-based; parameters: route intravenous, dose 3 mg/kg; conditions: in vivo
[32] = target: Tissue-type plasminogen activator (Homo sapiens, UniProt P00750); assay: Inhibition of recombinant human tPA using H-D-Isoleucyl-L-prolyl-L-arginine p-nitroaniline dihydrochloride as substrate measured after 5 mins by plate reader analysis
Chain of Tissue-type plasminogen activator (P00750 whole entry): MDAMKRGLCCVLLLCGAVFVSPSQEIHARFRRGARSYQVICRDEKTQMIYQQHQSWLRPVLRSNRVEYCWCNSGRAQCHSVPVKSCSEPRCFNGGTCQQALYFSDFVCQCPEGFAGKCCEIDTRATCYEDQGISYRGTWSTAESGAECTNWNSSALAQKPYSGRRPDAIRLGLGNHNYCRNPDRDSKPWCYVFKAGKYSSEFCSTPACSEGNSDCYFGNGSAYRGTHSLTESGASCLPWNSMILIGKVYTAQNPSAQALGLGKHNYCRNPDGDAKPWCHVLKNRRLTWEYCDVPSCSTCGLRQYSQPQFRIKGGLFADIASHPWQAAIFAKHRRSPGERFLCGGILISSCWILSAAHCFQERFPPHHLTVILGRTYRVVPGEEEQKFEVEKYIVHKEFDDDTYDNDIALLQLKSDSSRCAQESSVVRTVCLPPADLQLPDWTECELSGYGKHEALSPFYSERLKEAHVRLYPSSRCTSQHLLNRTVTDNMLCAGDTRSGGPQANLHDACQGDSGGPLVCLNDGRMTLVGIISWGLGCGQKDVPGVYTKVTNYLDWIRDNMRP

[33] = AUC(0 to 24 hrs) in rat at 30 mg/kg, po; type: ADME, organism-based; parameters: time < 24 hr, route oral, dose 30 mg/kg; conditions: in vivo
[34] = Half life in rat at 30 mg/kg, po; type: ADME, organism-based; conditions: in vivo
[35] = target: Trypsin (Homo sapiens, UniProt P07477+P07478+P35030); assay: Inhibition of human trypsin using Nalpha-Benzoyl-L-Arginine p-nitroaniline as substrate measured after 5 mins by plate reader analysis; type: protein assay
[36] = Tmax in rat at 30 mg/kg, po; type: ADME, organism-based; conditions: in vivo
[37] = AUC in rat at 5 mg/kg, po after 12 hrs; type: ADME, organism-based; parameters: route oral, time 12 hrs, dose 5 mg/kg; conditions: in vivo
[38] = target: T1, Plasma kallikrein; assay: Inhibition of endogenous human plasma kallikrein using Z-Phe-Arg-AMC.HCl as substrate measured after 5 mins by microplate reader analysis
[39] = Cmax in rat at 5 mg/kg, po; type: ADME, organism-based; parameters: route oral, dose 5 mg/kg; conditions: in vivo

Structure (SMILES): NCc1cccc(-n2cccn2)c1
IC50 [1]: 3400 µM

Structure (SMILES): CS(=O)(=O)c1cccc(-c2ccc(NC(=O)c3cc(C(F)(F)F)nn3-c3cccc(CN)c3)c(F)c2)c1
IC50 [1]: 1.23 µM

Structure (SMILES): NCc1cccc(-n2nc(C(F)(F)F)cc2C(=O)Nc2cccc(C(O)c3ccccc3)c2F)c1 (stereo not drawn)
IC50 [1]: 0.149 µM

Structure (SMILES): NCc1cccc(-n2nc(C(F)(F)F)cc2C(=O)Nc2cc(C(NCC3CC3)c3ccccc3)ccc2F)c1 (single isomer, unassigned; (-))
Cmax [3]: 133 ng/mL
AUC at 24 h [4]: 1490 ng·h/mL
concentration at 24 h [5]: 30 ng/mL

Continued, values first:

inhibition [2]: 7.5%
Structure (SMILES): NCc1cccc(-n2nc(C(F)(F)F)cc2C(=O)Nc2ccc(N3CCCCC3)cc2F)c1

IC50 [6]: > 50 µM
IC50 [7]: > 50 µM
IC50 [8]: 3.97 µM
AUC(0-t) at 24 h [9]: 1620 ng·h/mL
solubility [10]: 120 µg/mL (≈ 213 µM)
Cmax [11]: 475 ng/mL
IC50 [12]: > 50 µM
clearance [13]: 27 mL/min/kg
bioavailability [14]: 33%
half-life [15]: 22.7 h
CL/F [16]: 73 mL/min/kg
AUC(0-t) at 96 h [17]: 6180 ng·h/mL
Tmax [18]: 4.7 h
half-life [19]: 10.1 h
Cmax [20]: 342 ng/mL
Cmax [21]: 673 ng/mL
clearance [22]: 30 mL/min/kg
Cmax [3]: 242 ng/mL
bioavailability [23]: 45%
AUC(0-t) at 24 h [24]: 974 ng·h/mL
IC50 [25]: > 50 µM
solubility [26]: 160 µg/mL (≈ 284 µM)
AUC at 24 h [4]: 2210 ng·h/mL
CL/F [27]: 81 mL/min/kg
AUC(0-t) at 96 h [28]: 1860 ng·h/mL
AUC(0-t) at 24 h [29]: 4150 ng·h/mL
half-life [30]: 18.3 h
Cmax [31]: 773 ng/mL
IC50 [32]: > 50 µM
AUC(0-t) at 24 h [33]: 4780 ng·h/mL
half-life [34]: 18.5 h
IC50 [35]: 11 µM
Tmax [36]: 2 h
Structure (SMILES): N#Cc1cccc([C@@H](NCC2CC2)c2ccc(F)c(NC(=O)c3cc(C(F)(F)F)nn3-c3cccc(CN)c3)c2)c1 (stereo in doubt) [BEROTRALSTAT]

AUC at 12 h [37]: 131 ng·h/mL
IC50 [38]: 0.0267 µM
Cmax [39]: 45 ng/mL
IC50 [1]: 0.0104 µM
Structure (SMILES): NCc1cccc(-n2nc(C(F)(F)F)cc2C(=O)Nc2cc(C(NCC3CC3)c3ccccn3)ccc2F)c1 (stereo not drawn)

AUC at 12 h [37]: 73 ng·h/mL
IC50 [38]: 0.0167 µM
Cmax [39]: 22 ng/mL
IC50 [1]: 0.0052 µM
Structure (SMILES): NCc1cccc(-n2nc(C(F)(F)F)cc2C(=O)Nc2cc(C(NCC3CC3)c3ccncc3)ccc2F)c1 (stereo not drawn)
